Common to all, as to format: cell-based
One assay addresses T1, ER (estrogen receptor) (Homo sapiens, UniProt P03372).
T1 construct: MCF-7/ERE-luciferase monoclonal cells were selected by transfection of MCF-7; host or cells: MCF-7/ERE-luciferase (only the ERE-luciferase reporter was transfected)
T1 sequence (P03372 1-595): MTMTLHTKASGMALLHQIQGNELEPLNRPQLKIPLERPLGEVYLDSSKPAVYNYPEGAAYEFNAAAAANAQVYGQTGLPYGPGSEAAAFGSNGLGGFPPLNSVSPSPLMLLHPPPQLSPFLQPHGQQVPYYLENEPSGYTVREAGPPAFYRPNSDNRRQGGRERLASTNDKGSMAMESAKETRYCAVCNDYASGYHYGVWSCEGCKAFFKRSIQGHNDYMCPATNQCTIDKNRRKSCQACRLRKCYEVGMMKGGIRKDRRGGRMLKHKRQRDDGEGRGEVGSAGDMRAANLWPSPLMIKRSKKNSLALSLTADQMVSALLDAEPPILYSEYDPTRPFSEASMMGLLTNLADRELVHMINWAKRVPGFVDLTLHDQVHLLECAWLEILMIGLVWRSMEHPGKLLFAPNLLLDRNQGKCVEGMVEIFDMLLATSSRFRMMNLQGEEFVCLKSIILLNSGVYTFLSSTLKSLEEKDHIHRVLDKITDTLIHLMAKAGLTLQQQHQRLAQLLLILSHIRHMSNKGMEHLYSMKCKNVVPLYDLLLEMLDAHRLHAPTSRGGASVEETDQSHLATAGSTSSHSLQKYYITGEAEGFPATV
As to the kind of experiment: Inhibition of the binding of estrogen (E) to estrogen receptor (ER), MCF-7/ERE-luciferase reporter cells. Conditions: MCF-7/ERE-luciferase cells, 0.1 nM estradiol, 24 hours, chemiluminescence; read-out: IC50 value of inhibition effect on the binding of E to ER. The procedure: The compounds of the present invention have an inhibition effect on the binding of E (estrogen) to ER (estrogen receptor), thereby blocking the binding of a complex of E and ER complex to ERE (estrogen responsive element), and subsequently blocking the expression of downstream luciferase protein.
The inhibition effect of the compounds on the binding of E to ER in vitro was tested by the following method.
The object of this experiment was to determine the inhibition effect of the compounds on the binding of E to ER, and the in vitro activity of the compounds was evaluated according to the IC50 values.
ERE was cloned into the upstream of the luciferase gene, and MCF-7/ERE-luciferase monoclonal cells were selected by transfection of MCF-7 (Cell Bank of Chinese Academy of Sciences typical culture preservation Committee, TCHu74). MCF-7/ERE-luciferase cells were inoculated into the MEM medium (hyclone, SH30024.01B) containing 10% charcoal stripped FBS (Moregate, FBSF), 1% sodium pyruvate (Sigma, S8636), 1% nonessential amino acids (Sigma, M7145) and 500 μg/ml G418 in a 96-well plates with a density of 30,000 cells/well, and the cells were incubated under the conditions of 37° C., and 5% CO2. The drug was prepared as a 20 mM stock solution that was later diluted with 100% DMSO in 10 fold concentration gradient, and then diluted 20-fold with the medium DMEM. After incubation for 24 hours, the medium was removed, then 0.1 nM estradiol (Sigma, E2758) and 10 μl of the drug diluted with the medium were added to each well, and the control group was added with DMSO. The plate was gently shaken and incubated in a incubator at 37° C., 5% CO2. After 24 hours, the cell culture medium was discarded, Then, 50 μl of the prepared luciferase substrate (Promega, E6110) was added to each well, and the plate was placed in the dark at room temperature for 10-15 minutes, then the chemiluminescence signal value was determined.
The inhibition effect of the compounds of the present invention on the binding of E to ER was tested by the experiment described above. The values of the chemiluminescence signal vs the logarithmic concentrations of the compounds were plotted using Graphpad Prism, and the measured IC50 values are shown in Table 1.
Background: In a reporter assay the amount or activity of a reporter protein is the signal.

The subject of the next assay is MCF7 cells. As to the kind of experiment: Inhibition of the proliferation of MCF7 cells (Cell Titer-Glo). To be noted: Homo sapiens, MCF-7 cells, 72 hours, read-out: IC50 value of inhibition effect on the proliferation of MCF7 cells. The procedure: The object of this experiment was to determine the inhibition effect of the compounds on the proliferation activity of MCF7 cells, and the in vitro activity of the compounds was evaluated according to the IC50 values.
MCF-7 cells (Cell Bank of Chinese Academy of Sciences typical culture preservation Committee, TChu 74) were inoculated into the MEM medium (Hyclone, SH30024.01B) containing 10% FBS (Gibco, 10099-141), 1% sodium pyruvate (Sigma, S8636), and 1% nonessential amino acids (Sigma, M7145) in a 96-well plate with a density of 40,000 cells/well, and the cells were incubated under the conditions of 37° C., and 5% CO2. The compound was prepared as a 20 mM stock solution that was later diluted to 1000× final concentration with 100% DMSO, and then diluted with 20-fold medium containing 2% FBS. After incubation for 24 hours, the medium was removed and 90 μl of the medium containing 2% FBS and 10 μl of the drug were added to each well, 10 […] of DMSO was added to the control group, and the blank group contained only 100 μl medium containing 2% FBS. The plate was gently shaken and incubated in a incubator at 37° C., 5% CO2. After 72 hours later, 50 μl of mixed Cell Titer-Glo (Promega, G7571) was added to each well. The plate was shaken until the ingredients were mixed uniformly, and placed at room temperature for 10 minutes, then the chemiluminescence signal value was determined. The inhibition effect of the compound AZD9496 at 100 nM on the proliferation of MCF-7 cells was set to 100%, the maximum inhibition rate of other compounds=(chemiluminescence signal valuenegative control−chemiluminescence signal valuecompound 100 nm)/(chemiluminescence signal valuenegative control−chemiluminescence signal valueAZD9496 100 nm)×100%, and the negative control was a well with 0.5% DMSO.
The values of the chemiluminescence signals vs the logarithmic concentrations of the compounds were plotted using Graghpad Prism to obtain the IC50 values.
On the technique in general: In ATP-based viability assays light output follows the ATP content of the culture.

The next assay concerns the target T2, ERα (Homo sapiens, UniProt P03372).
T2 construct: host or cells: MCF-7
T2 sequence (P03372 1-595): T1 sequence (P03372 1-595)
As to the kind of experiment: Degradation effect on ERα in MCF-7 cells (ERα Duoset ELISA). To be noted: MCF7; compound at 3 μM, relative to positive control AZD-9496 at 3 μM set to 100%. The procedure: In order to determine the degradation effect on ER induced by the compound of present invention, the following method was used to determine the degradation effect of the compounds of the present invention on ER.
MCF-7 cell line (TChu 74, Cell Bank of Chinese Academy of Sciences typical culture preservation Committee)
ERα Duoset Kit (#DYC5715E, R&D System)
MCF-7 cells well incubated in DMEM/F-12 medium containing 10% FBS.
On the first day of the experiment, MCF-7 cells were resuspended in DMEM/F-12 medium containing 10% FBS treated by activated carbon, then inoculated into a 48-well plate with a density of 50,000 cells/well and incubated for 22-24 hours.
On the second day of the experiment, the test compound was diluted with medium and added to a 48-well plate. The ERα-capture antibody was diluted to 1 μg/ml with PBS, and added with 100 μl/well to a 96-well plate at 100 μl/well. The plate was sealed and coated overnight at room temperature.
On the third day of the experiment, the coated 96-well plate was washed twice with PBS, added with a sealing solution (1% BSA in PBS) at 110 μl/well and sealed for 1 hour at room temperature. The 48-well plate was washed once and the residual liquid was removed. Then, 60 μl of lysis buffer (6 M urea, 1 mM EDTA, 0.5% Triton X-100, 1 mM PMSF, Protease Inhibitor cocktail) was added to each well. After lysis on ice for 15 minutes, the diluent (1 mM EDTA, 0.5% TritonX-100 dissolved in PBS) was added. The cell-diluted lysate was transferred to a 96-well plate at 100 μl/well, then the plate was incubated at room temperature for 2 hours. The diluted primary antibody was added after the plate was washed 4 times with a washing liquid (PBST). After incubation for 1 hour, the 96-well plate was washed 4 times, and the second antibody was added, then the plate was incubated for 30 minutes. After the plate was washed with a washing liquid, TMB chromogenic solution was added and incubated for 15 minutes. The reaction was stopped by the addition of 1 M H2SO4, then the light absorption at a wavelength of 450 nm was read. The degradation effect of the compound AZD9496 at 3 μM was set to 100%, the Emax of other compounds=(ODnegative control−ODcompound 3 μM)/(ODnegative control−ODAZD9496 3 μM)×100%, and the negative control was a well with DMSO.
On the technique in general: In an ELISA, binding on a coated surface is turned into a signal by an enzyme label.

By Emax is commonly meant the maximal effect, on the per cent scale that the assay sets.

Each structure is given as a SMILES string.

As for `CC(C)c1ccc(N2[C@@H](c3c(F)cc(/C=C/C(=O)O)cc3F)c3ccc(-c4cnn(C)c4)cc3C[C@@H]2C)cc1` (racemic) [Example 40, (E)-3-(3,5-Difluoro-4-((1S,3R/1R,3S)-2-(4-isopropylphenyl)-3-methyl-6-(1-methyl-1H-pyrazol-4-yl)-1,2,3,4-tetrahydroisoquinolin-1-yl)phenyl)acrylic acid], the IC50 came out at 0.6 nM at ER (estrogen receptor) and 0.23 nM with MCF7 cells. Further, the Emax at 3 µM at ERα is 115%.

On to `CCc1ccc(N2[C@H](c3ccc(/C=C/C(=O)O)cc3)c3ccc(-c4cnn(C)c4)cc3C[C@H]2C)cc1` [Example 2, (E)-3-(4-((1R,3R)-2-(4-Ethylphenyl)-3-methyl-6-(1-methyl-1H-pyrazol-4-yl)-1,2,3,4-tetrahydroisoquinolin-1-yl)phenyl)acrylic acid], for which the IC50 at ER (estrogen receptor) was 1.71 nM; with MCF7 cells, 0.4 nM. The compound further registered a maximum response (Emax) at 3 µM at ERα of 114%.

For the compound `CC1Cc2cc(-c3cnn(C)c3)ccc2C(c2c(F)cc(/C=C/C(=O)O)cc2F)N1c1ccc(C2CC2)cc1` [Example 4, (E)-3-(4-((1S,3R/1R,3S)-2-(4-Cyclopropylphenyl)-3-methyl-6-(1-methyl-1H-pyrazol-4-yl)-1,2,3,4-tetrahydroisoquinolin-1-yl)-3,5-difluorophenyl)acrylic acid], the IC50 was found to be 0.27 nM on ER (estrogen receptor) and 0.42 nM in the assay on MCF7 cells. On ERα, the maximum response (Emax) at 3 µM stood at 136%.

With `COc1ccc(N2C(C)Cc3cc(-c4cnn(C)c4)ccc3C2c2ccc(/C=C/C(=O)O)cc2)cc1` [Example 46, (E)-3-(4-((1R,3R/1S,3S)-2-(4-Methoxyphenyl)-3-methyl-6-(1-methyl-1H-pyrazol-4-yl)-1,2,3,4-tetrahydroisoquinolin-1-yl)phenyl)acrylic acid], the IC50 on ER (estrogen receptor) turned out to be 1.42 nM; with MCF7 cells it was 0.65 nM. This compound returned an Emax at 3 µM on ERα of 111%.

These data come from US10398689B2, “Benzopiperidine derivative, preparation method thereof and medical use thereof” (Jiangsu Hengrui Medicine Co., Ltd., priority 2015, dated 2019).
